Source: patent US20020035131A1, “Regimen and kit for amelioration of premature ejaculation” (Pentech Pharmaceuticals, Inc., priority 1999, published 2002)

Tests used:
[1] = cited from earlier work
dopamine receptors = details: unlike sertraline; cited from earlier work
[2] = system: normally potent male patients suffering from premature ejaculation; test: Example 2: incidence of adverse effects; assay type: in vivo, human
[3] = system: healthy men with a diagnosis of premature ejaculation (PE); test: Example 4: double-blind, randomized, parallel safety and efficacy study, 6, 9 and 12 mg capsules; assay type: in vivo, human; details: for Time to Ejaculate, Mean Time (minutes), Reported By Partner / Time to Ejaculate, Range (minutes), Reported By Partner / Time to Ejaculate, Mean Time (minutes), Reported By Patient / Time to Ejaculate, Range (minutes), Reported By Patient: after 6 weeks treatment, baseline latency ≦ 2 minutes, preliminary data; for Time to Ejaculate, Mean Time (minutes), Reported By Partner / Time to Ejaculate, Range (minutes), Reported By Partner: n 23; for Reason for Early Termination: AE (Adverse Experience), patients: 6, 9 and 12 mg capsules combined
Protocol: A double-blind, randomized, parallel safety and efficacy study was conducted at six clinical sites, A-F. […] The study consisted of a screening period, baseline period, and two treatment periods. The patients who completed the study participated for about nine weeks. The patients selected were healthy men between the ages of 21 and 65 years with a diagnosis of premature ejaculation (PE). Patients who met the selection criteria provided a medical history and submitted to psychosexual and physical examinations at screening. The efficacy of the paroxetine capsules was assessed at each visit. Safety was assessed by physical examinations and adverse experience (AE) reports, if any, were collected throughout the study. A post-treatment physical assessment was performed at the final visit. Qualified patients who were admitted to this study were assigned an identification number in sequential order by enrollment. […] There were a total of about eighteen patients per dose/per site. […] The capsule was to be taken one hour after breakfast or within two hours of awakening.

[4] = system: normally potent male patients suffering from premature ejaculation; test: Example 2 Study Group 1: single blind cross-over, continual maintenance paroxetine vs placebo (ELT, coitus frequency); assay type: in vivo, human
Excerpt: All patients in the study group were heterosexual, had no other sexual disorders and were either married or in a stable relationship. Patients with erectile dysfunction, reduced sexual desire, inhibited male orgasm, chronic depressive, psychiatric or physical illness, alcohol or substance abuse and the use of psychotropic and anti-depressant medication were excluded from the trial. Study Group 1 was comprised of 26 patients who were randomized into two treatment groups, Group A and Group B. […] Group B received placebo similarly administered about 3-4 hours before sexual intercourse. Patients were reviewed every two weeks. Cross-over was then conducted in both groups after four weeks of treatment, following an intervening three week drug free “washout” period, for a further four weeks of treatment. None of the patients received any formal psychosexual counseling. Patients were supplied with a diary and were asked to record their frequency of coitus, quality of erection and orgasm. Patients were asked to measure their ELT using a stopwatch. Pre-treatment mean ELT was measured over a three week baseline period during which patients were asked to have sexual intercourse at least three times. Pre-treatment frequency of coitus was the mean number of attempts in the previous three months. Patients were asked not to use condoms or topical penile anaesthetic creams or sprays. The frequency data of coitus and ejaculatory latency time (ELT) during the paroxetine and placebo treatment phases were statistically compared (Student's t-test).

[5] = system: central β-adrenergic receptors; details: unlike sertraline; cited from earlier work
[6] = system: healthy men with a diagnosis of premature ejaculation (PE); test: Example 3: double-blind, randomized, placebo-controlled three-way crossover safety and efficacy study, 20 and 30 mg capsules; assay type: in vivo, human; details: for Mean Time in minutes, Reported By Partner / Time in minutes (Range), Reported By Partner / Mean Time in minutes, Reported By Patient / Time in minutes (Range), Reported By Patient / Mean % Change from Baseline, Reported By Partner / Mean % Change from Baseline, Reported By Patient: 6-week treatment period, preliminary data; for Mean Time in minutes, Reported By Partner / Time in minutes (Range), Reported By Partner / Mean Time in minutes, Reported By Patient / Time in minutes (Range), Reported By Patient: male baseline latency ≦ 2 minutes; for Reason for Early Termination: AE (Adverse Experience), patients: crossover of placebo, 20 and 30 mg capsules, not attributed to one treatment
Protocol: A double-blind, randomized, placebo-controlled, three-way crossover safety and efficacy study was conducted at four clinical sites, A-D. […] The study consisted of a screening period, a baseline period, and three treatment periods, separated by two washout periods. Patients who completed the study participated for about twenty-five weeks. […] Patients who met the selection criteria provided a medical history and submitted to psychosexual and physical examinations at screening. The efficacy of the paroxetine capsules was assessed at each visit by questionnaire. Safety was assessed by physical examinations and adverse experience (AE) reports, if any, were collected throughout the course of the study. A post-treatment physical assessment was performed at the final visit. Qualified patients who were admitted to the study were assigned an identification number in sequential order by enrollment. […] There were about twenty-three patients per sequence. […] Life long history of PE and/or history of PE within the last six months having ≦one minute ejaculation and a perception of lack of control. […] Identically matching placebo capsules were also supplied. Blinding, packaging and labeling was such that each strength of paroxetine capsule and placebo capsule was indistinguishable from one another on the basis of size, appearance, shape, weight, taste, odor finish, and dissolution characteristics. […] A three-week washout (no treatment) period took place between the end of Treatment Period 1 and the start of Treatment Period 2, and between the end of Treatment Period 2 and the start of Treatment Period 3. The following methodology for the study was employed.

P450 2D6 enzyme = P450 2D6 enzyme (Homo sapiens, UniProt P10635); details: cited from earlier work
[7] = Study Group 2, Daily Paroxetine (10 mg)
[8] = Study Group 2, Daily Paroxetine (10 mg), 42 patients
[9] = Study Group 2, Daily Paroxetine (10 mg), 42 patients, listed as Paroxetine
[10] = Study Group 1-A, week 1: continual maintenance paroxetine 20 mg 3-4 hours before intercourse
[11] = Study Group 1-A, week 2: continual maintenance paroxetine 20 mg 3-4 hours before intercourse
[12] = Study Group 1-A, week 3: continual maintenance paroxetine 20 mg 3-4 hours before intercourse
[13] = Study Group 1-A, week 4: continual maintenance paroxetine 20 mg 3-4 hours before intercourse
[14] = Study Group 1-B, week 8: first week of continual maintenance paroxetine 20 mg after placebo and washout
[15] = Study Group 1-B, week 9: second week of continual maintenance paroxetine 20 mg after placebo and washout
[16] = Study Group 1-B, week 10: third week of continual maintenance paroxetine 20 mg after placebo and washout
[17] = Study Group 1-B, week 11: fourth week of continual maintenance paroxetine 20 mg after placebo and washout

Chain of P450 2D6 enzyme (P10635 whole entry): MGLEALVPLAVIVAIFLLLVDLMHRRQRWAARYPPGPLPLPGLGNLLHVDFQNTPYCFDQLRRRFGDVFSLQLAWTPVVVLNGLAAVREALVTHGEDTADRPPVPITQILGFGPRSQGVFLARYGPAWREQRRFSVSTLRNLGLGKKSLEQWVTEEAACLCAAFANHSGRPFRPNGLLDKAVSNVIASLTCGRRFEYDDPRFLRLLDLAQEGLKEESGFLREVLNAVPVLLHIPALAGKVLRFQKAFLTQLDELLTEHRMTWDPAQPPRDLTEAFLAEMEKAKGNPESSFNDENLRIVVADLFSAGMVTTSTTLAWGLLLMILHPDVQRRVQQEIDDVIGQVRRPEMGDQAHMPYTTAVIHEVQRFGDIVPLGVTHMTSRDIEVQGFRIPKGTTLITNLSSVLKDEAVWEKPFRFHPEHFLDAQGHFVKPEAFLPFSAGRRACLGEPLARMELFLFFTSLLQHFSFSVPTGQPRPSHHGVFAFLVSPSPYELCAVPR

## Fc1ccc([C@@H]2CCNC[C@H]2COc2ccc3c(c2)OCO3)cc1 (relative stereo) [paroxetine, trans-(−)-3-(1,3-benzodioxol-5-yloxy)methyl-4-(4-fluorophenyl) piperidine]
[1]; occurring after about
  time to steady state systemic levels: 7 to 14 days
[1]; reportedly
  half life: 24 h
[1]; usually achieved within about
  time to peak plasma levels: 2 to 8 h
Dopamine receptors
  affinity for dopamine receptors: little affinity
[2]; Study Group 1, continual maintenance use of paroxetine (20 mg)
  patients reporting any adverse effects: None
[2]; [7]
  Adverse effects: Total Patients (fraction): 7/42
  Adverse effects: Total Patients (percent): 17%
[2]; [8]
  Adverse effect: Anejaculation (patients): Three
  Adverse effect: Anorexia (patients): 1
  Adverse effect: Gastrointestinal upset (patients): 3
  Adverse effect: Reduced Libido (patients): Two
[2]; [9]
  Adverse effect: Anejaculation (patients): 3
  Adverse effect: Reduced Libido (patients): 2
[2]; Study Group 2, patients with anejaculation on daily paroxetine
  return of ejaculation after withdrawal of the drug: 2 to 10 days
[3]; 6 mg capsule daily
  Time to Ejaculate, Mean Time (minutes), Reported By Partner: 2.6 min
  Time to Ejaculate, Range (minutes), Reported By Partner: 0.4 to 15 min
[3]; 6 mg capsule daily, n 25
  Time to Ejaculate, Mean Time (minutes), Reported By Patient: 2.4 min
  Time to Ejaculate, Range (minutes), Reported By Patient: 0.03 to 16 min
[3]; 9 mg capsule daily
  Time to Ejaculate, Mean Time (minutes), Reported By Partner: 2.3 min
  Time to Ejaculate, Range (minutes), Reported By Partner: 0.03 to 10 min
[3]; 9 mg capsule daily, n 25
  Time to Ejaculate, Mean Time (minutes), Reported By Patient: 2.4 min
  Time to Ejaculate, Range (minutes), Reported By Patient: 0.03 to 12.5 min
[3]; 12 mg capsule daily
  Time to Ejaculate, Mean Time (minutes), Reported By Partner: 3.5 min
  Time to Ejaculate, Range (minutes), Reported By Partner: 0.12 to 30 min
[3]; 12 mg capsule daily, n 24
  Time to Ejaculate, Mean Time (minutes), Reported By Patient: 2.4 min
  Time to Ejaculate, Range (minutes), Reported By Patient: 0.25 to 10 min
[3]; Clinical Site A, 10 enrolled
  Reason for Early Termination: AE (Adverse Experience), patients: 0
[3]; Clinical Site B, 16 enrolled
  Reason for Early Termination: AE (Adverse Experience), patients: 3
[3]; Clinical Site C, 34 enrolled
  Reason for Early Termination: AE (Adverse Experience), patients: 1
[3]; Clinical Site D, 6 enrolled
  Reason for Early Termination: AE (Adverse Experience), patients: 1
[3]; Clinical Site E, 22 enrolled
  Reason for Early Termination: AE (Adverse Experience), patients: 1
[3]; Clinical Site F, 19 enrolled
  Reason for Early Termination: AE (Adverse Experience), patients: 2
[3]; TOTALS of sites A-F, 107 enrolled
  Reason for Early Termination: AE (Adverse Experience), patients: 8
[4]; [10]
  Coitus Frequency/wk: 1.1 /wk
  Ejaculatory Latency Time: 1.0 min
[4]; [11]
  Coitus Frequency/wk: 1.4 /wk
  Ejaculatory Latency Time: 3.0 min
[4]; [12]
  Coitus Frequency/wk: 2.3 /wk
  Ejaculatory Latency Time: 2.9 min
[4]; [13]
  Coitus Frequency/wk: 3.2 /wk
  Ejaculatory Latency Time: 3.2 min
[4]; [14]
  Coitus Frequency/wk: 0.6 /wk
  Ejaculatory Latency Time: 1.3 min
[4]; [15]
  Coitus Frequency/wk: 1.9 /wk
  Ejaculatory Latency Time: 2.8 min
[4]; [16]
  Coitus Frequency/wk: 3.5 /wk
  Ejaculatory Latency Time: 3.5 min
[4]; [17]
  Coitus Frequency/wk: 3.1 /wk
  Ejaculatory Latency Time: 3.5 min
[4]; Study Group 1: continual maintenance paroxetine
  time to prolongation of the ejaculatory interval (ELT): 1-2 weeks
[4]; Study Group 1, patients who had never previously achieved it, after two weeks of treatment
  patients achieving intra-vaginal ejaculation for the first time: one of three
[5]
  affinity for central β-adrenergic receptors: little affinity
[6]; 20 mg capsule daily, n = 26
  Mean Time in minutes, Reported By Partner: 6.5 min
  Time in minutes (Range), Reported By Partner: (0.4-20) minutes
[6]; 20 mg capsule daily, n = 28
  Mean Time in minutes, Reported By Patient: 6.2 min
  Time in minutes (Range), Reported By Patient: (0.5-20) minutes
[6]; 20 mg capsule daily
  Mean % Change from Baseline, Reported By Partner: 225%
  Mean % Change from Baseline, Reported By Patient: 464%
[6]; 30 mg capsule daily, n = 25
  Mean Time in minutes, Reported By Partner: 6.8 min
  Time in minutes (Range), Reported By Partner: (0.3-30) minutes
[6]; 30 mg capsule daily, n = 27
  Mean Time in minutes, Reported By Patient: 7 min
  Time in minutes (Range), Reported By Patient: (0.25-45) minutes
[6]; 30 mg capsule daily
  Mean % Change from Baseline, Reported By Partner: 240%
  Mean % Change from Baseline, Reported By Patient: 536%
[6]; Clinical Site A, 10 enrolled
  Reason for Early Termination: AE (Adverse Experience), patients: 0
[6]; Clinical Site B, 9 enrolled
  Reason for Early Termination: AE (Adverse Experience), patients: 0
[6]; Clinical Site C, 15 enrolled
  Reason for Early Termination: AE (Adverse Experience), patients: 2
[6]; Clinical Site D, 19 enrolled
  Reason for Early Termination: AE (Adverse Experience), patients: 3
[6]; TOTALS of sites A-D, 53 enrolled
  Reason for Early Termination: AE (Adverse Experience), patients: 5
P450 2D6 enzyme
  inhibition of the P450 2D6 enzyme: potent inhibitor
